The target in test [1] is T1, Node A (synthetic construct, UniProt Z9LAG0LSP2).
T1 construct: ancestral reconstruction
T1 sequence (Z9LAG0LSP2 1-442): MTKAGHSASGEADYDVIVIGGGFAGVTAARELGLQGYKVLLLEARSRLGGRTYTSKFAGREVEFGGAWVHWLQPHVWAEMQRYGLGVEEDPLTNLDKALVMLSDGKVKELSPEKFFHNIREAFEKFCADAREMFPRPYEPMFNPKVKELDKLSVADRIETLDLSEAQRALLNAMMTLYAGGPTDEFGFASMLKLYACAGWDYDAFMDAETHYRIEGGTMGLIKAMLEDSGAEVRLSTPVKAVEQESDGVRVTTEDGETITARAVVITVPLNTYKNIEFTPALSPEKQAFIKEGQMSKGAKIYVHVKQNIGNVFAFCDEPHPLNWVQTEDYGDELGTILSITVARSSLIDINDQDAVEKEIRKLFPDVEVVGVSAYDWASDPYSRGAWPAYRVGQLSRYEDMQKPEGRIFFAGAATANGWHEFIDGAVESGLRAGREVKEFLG
In words: anaerobic stopped-flow flavin reduction at […] nm. It is filed as biochemical. The following applies: pH 7.5, 4 °C, no O2.

Test [2] deals with Node D. The following applies: pH 7.5, 4 °C, no O2; binding to oxidized enzyme; biphasic.
Target sequence in this assay (DOC12272882_5 1-447 A90V): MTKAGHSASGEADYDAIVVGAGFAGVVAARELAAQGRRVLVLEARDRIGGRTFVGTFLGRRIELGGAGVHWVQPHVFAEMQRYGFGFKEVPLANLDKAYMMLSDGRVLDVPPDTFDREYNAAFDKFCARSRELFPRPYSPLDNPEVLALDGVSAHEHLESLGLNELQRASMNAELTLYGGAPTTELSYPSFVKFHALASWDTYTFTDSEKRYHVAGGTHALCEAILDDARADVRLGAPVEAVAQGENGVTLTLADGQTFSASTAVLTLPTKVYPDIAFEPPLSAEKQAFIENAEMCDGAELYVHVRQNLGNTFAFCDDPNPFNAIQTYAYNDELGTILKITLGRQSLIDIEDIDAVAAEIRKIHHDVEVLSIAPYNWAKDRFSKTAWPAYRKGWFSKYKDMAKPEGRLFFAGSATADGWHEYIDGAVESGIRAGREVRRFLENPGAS
The test system of test [3] is Node D. The conditions noted are these: pH 7.5, 4 °C, no O2; binding to oxidized enzyme; biphasic. This is another data set of the same source.
Target sequence in this assay (DOC12272882_5 1-447 E300T): as the sequence (DOC12272882_5 1-447 A90V) above, with V90A, E300T counted along it
Test [4] relates to Node D. The conditions noted are these: pH 7.5, 4 °C, no O2; binding to oxidized enzyme; biphasic. This is another data set of the same source.
Target sequence in this assay (DOC12272882_5 1-447 M100V): as the sequence (DOC12272882_5 1-447 A90V) above, with V90A, M100V counted along it
The target in test [5] is T2, Node D (synthetic construct, UniProt Z9ZYW4GBP2).
T2 construct: ancestral reconstruction; N-terminal MTKAGHSASGEA peptide (from Node D's own predicted N-terminal region), C-terminal His tag, pET29b, E. coli BL21(DE3); 431 positions
In words: absorbance spectrum of purified enzyme. Format: binding. The conditions noted are these: as purified.

The target in test [6] is T3, NctB (Shinella sp. HZN7, UniProt A0A075BSX9).
T3 construct: synthetic gene in pET29b, C-terminal His tag, E. coli BL21(DE3); FAD holoenzyme
T3 sequence (A0A075BSX9 whole entry): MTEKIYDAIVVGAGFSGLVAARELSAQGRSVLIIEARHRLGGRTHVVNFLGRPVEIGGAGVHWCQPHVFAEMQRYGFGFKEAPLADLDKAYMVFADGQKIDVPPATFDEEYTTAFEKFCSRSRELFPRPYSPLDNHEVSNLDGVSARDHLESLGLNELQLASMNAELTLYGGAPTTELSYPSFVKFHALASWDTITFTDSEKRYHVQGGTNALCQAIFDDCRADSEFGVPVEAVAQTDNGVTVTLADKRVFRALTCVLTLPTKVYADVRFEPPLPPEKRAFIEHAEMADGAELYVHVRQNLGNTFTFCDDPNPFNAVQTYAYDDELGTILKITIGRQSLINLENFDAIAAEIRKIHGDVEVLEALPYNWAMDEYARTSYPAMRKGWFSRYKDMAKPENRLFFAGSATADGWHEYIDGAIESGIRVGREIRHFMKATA
The test can be described thus: absorbance spectrum of purified enzyme. Format: binding. The following applies: as purified.

Test [7] addresses T4, Node C (synthetic construct, UniProt Z9TTH1JYZ3).
T4 construct: ancestral reconstruction; N-terminal MTKAGHSASGEA peptide added, C-terminal His tag, pET29b, E. coli BL21(DE3); 431 positions
In words: absorbance spectrum of purified enzyme. It is filed as binding. The following applies: as purified.

The target of test [8] is T1, Node A. In words: absorbance spectrum of purified enzyme. It is filed as binding. The following applies: as purified.
For test [9], the target named is T5, Node B (synthetic construct, UniProt Z9QPI4SOH8).
T5 construct: ancestral reconstruction
The test can be described thus: absorbance spectrum of purified enzyme. The conditions noted are these: as purified. Format: binding.

Like-named read-outs stand apart in the source and are kept apart here.

Turning to `CN1CCC[C@H]1c1ccc(O)nc1` [6OHN, (S)-6-hydroxynicotine], the “anaerobic stopped-flow flavin reduction at 450 nm” value in test [1] was “Node A reacted poorly with both nicotine and 6OHN”. The Kd entry in test [2], in [3] and in test [4] was “All three mutants were capable of reacting with 6OHN” in each case.
For `CN1CCC[C@H]1c1cccnc1` [(S)-nicotine], in test [1], the “anaerobic stopped-flow flavin reduction at 450 nm” value is “Node A reacted poorly with both nicotine and 6OHN”.
`Cc1cc2nc3c(=O)[nH]c(=O)nc-3n(C[C@H](O)[C@H](O)[C@H](O)COP(=O)(O)OP(=O)(O)OC[C@H]3O[C@@H](n4cnc5c(N)ncnc54)[C@H](O)[C@@H]3O)c2cc1C` [FAD, flavin adenine dinucleotide]: the “absorbance spectrum of purified enzyme” value in test [5] was “All ASR constructs purified with FAD bound”; in test [6], “all of the ASR enzymes and NctB have typical spectra of oxidized FAD”; in [7], “All ASR constructs purified with FAD bound”; in test [8], “All ASR constructs purified with FAD bound”; in test [9], “All ASR constructs purified with FAD bound”.
